The source of these data is ChEMBL document CHEMBL3399978, “Synthesis and optimization of picolinamide derivatives as a novel class of 11β-hydroxysteroid dehydrogenase type 1 (11β-HSD1) inhibitors” (Bioorg Med Chem Lett, 2015).

Data set [1] can be described thus: Metabolic stability in mouse liver microsomes assessed as compound remaining after 30 mins. It counts as ADME. The conditions noted are these: read-out: Stability.
For data set [2], the target named is T1, 11-beta-hydroxysteroid dehydrogenase 1 (Homo sapiens, UniProt P28845). Put plainly: Inhibition of human 11beta-HSD1 using microsomal fraction and NADPH assessed as conversion of cortisone to cortisol by biochemical enzyme assay.
T1 sequence (P28845 whole entry): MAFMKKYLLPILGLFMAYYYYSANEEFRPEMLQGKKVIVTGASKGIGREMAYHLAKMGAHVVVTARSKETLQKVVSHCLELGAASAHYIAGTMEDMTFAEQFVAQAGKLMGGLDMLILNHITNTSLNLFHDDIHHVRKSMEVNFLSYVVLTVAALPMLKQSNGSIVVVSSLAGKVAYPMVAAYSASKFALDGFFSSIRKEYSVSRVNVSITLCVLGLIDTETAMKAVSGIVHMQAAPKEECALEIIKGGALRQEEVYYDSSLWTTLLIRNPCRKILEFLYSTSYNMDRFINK
Data set [3] addresses T1, 11-beta-hydroxysteroid dehydrogenase 1. Nature of the data set: Inhibition of human 11beta-HSD1 expressed in HEK293 cells using NADPH assessed as conversion of cortisone to cortisol by cell-based assay.
The test system of data set [4] is Mus musculus. Nature of the data set: Ex vivo inhibition of 11beta-HSD1 in male C57BL/6 mouse epididymal fat assessed as conversion of cortisone to cortisol at 30 mg/kg, po after 6 hrs by enzyme immunoassay. The settings on record: C57BL/6, 6 h. It counts as functional.
Data set [5] concerns Mus musculus. Put plainly: Ex vivo inhibition of 11beta-HSD1 in male C57BL/6 mouse liver assessed as conversion of cortisone to cortisol at 30 mg/kg, po after 6 hrs by enzyme immunoassay. It counts as functional. The settings on record: C57BL/6, Liver.
Data set [6] in a line: Oral bioavailability in mouse at 20 mg/kg. It counts as ADME, organism-based. The conditions noted are these: in vivo.
The test system of data set [7] is Mus musculus. Nature of the data set: Reduction in triglyceride level in ob/ob type 2 diabetic mouse model at 10 mg/kg, po once daily after 10 days relative to vehicle treated control. Details: dose 10 mg/kg. It counts as functional, organism-based.
Data set [8] deals with Mus musculus. Nature of the data set: Toxicity in ob/ob type 2 diabetic mouse model assessed as HDL cholesterol at 10 mg/kg, po once daily after 10 days relative to vehicle treated control. It counts as organism-based. The arrangement: dose 10 mg/kg, route oral. The conditions noted are these: in vivo, 240 h.
Data set [9] relates to Mus musculus. Nature of the data set: Ex vivo inhibition of 11beta-HSD1 in male C57BL/6 mouse epididymal fat assessed as conversion of cortisone to cortisol at 30 mg/kg, po after 2 hrs by enzyme immunoassay. It counts as functional. The settings on record: C57BL/6, 2 h.
Data set [10] relates to Mus musculus. Nature of the data set: Reduction in non-fasting blood glucose level in ob/ob type 2 diabetic mouse model at 10 mg/kg, po once daily after 10 days relative to vehicle treated control. It counts as functional. The settings on record: 240 h.
Data set [11] in a line: Clearance in mouse at 5 mg/kg, iv. It counts as ADME, organism-based. Details: dose 5 mg/kg, route intravenous. The settings on record: in vivo.
Data set [12] has as its system Mus musculus. Nature of the data set: Toxicity in ob/ob type 2 diabetic mouse model assessed as body weight at 10 mg/kg, po once daily after 10 days relative to vehicle treated control. It counts as organism-based. The conditions noted are these: in vivo, 240 h. The arrangement: dose 10 mg/kg, route oral.
In data set [13] the test system is Mus musculus. Put plainly: Reduction in LDL cholesterol level in ob/ob type 2 diabetic mouse model at 10 mg/kg, po once daily after 10 days relative to vehicle treated control. The arrangement: dose 10 mg/kg. It counts as functional, organism-based.
Data set [14] concerns Mus musculus. Nature of the data set: Toxicity in ob/ob type 2 diabetic mouse model assessed as food intake at 10 mg/kg, po once daily after 10 days relative to vehicle treated control. It counts as organism-based. The arrangement: dose 10 mg/kg, route oral. The settings on record: in vivo, 240 h.
For data set [15], the system named is Mus musculus. Put plainly: Ex vivo inhibition of 11beta-HSD1 in male C57BL/6 mouse liver assessed as conversion of cortisone to cortisol at 30 mg/kg, po after 2 hrs by enzyme immunoassay. It counts as functional. The conditions noted are these: C57BL/6, Liver.
The target of data set [16] is T2, 11-beta-hydroxysteroid dehydrogenase type 2 (Homo sapiens, UniProt P80365).
T2 sequence (P80365 whole entry): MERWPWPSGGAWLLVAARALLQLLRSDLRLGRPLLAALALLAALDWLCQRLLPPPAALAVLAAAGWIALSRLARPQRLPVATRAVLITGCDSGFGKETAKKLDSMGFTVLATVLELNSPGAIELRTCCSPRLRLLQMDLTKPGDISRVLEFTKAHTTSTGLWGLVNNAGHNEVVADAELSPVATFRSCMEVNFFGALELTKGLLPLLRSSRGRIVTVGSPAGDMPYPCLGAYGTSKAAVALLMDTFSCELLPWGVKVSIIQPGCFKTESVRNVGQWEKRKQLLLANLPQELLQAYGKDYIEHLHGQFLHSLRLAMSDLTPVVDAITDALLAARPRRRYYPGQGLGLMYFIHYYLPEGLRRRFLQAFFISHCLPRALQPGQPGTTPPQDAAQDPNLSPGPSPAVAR
Nature of the data set: Inhibition of human 11beta-HSD2 using microsomal fraction and NADPH assessed as conversion of cortisone to cortisol by biochemical enzyme assay.

Data set [17] deals with 11-beta-hydroxysteroid dehydrogenase 1 (Mus musculus, UniProt P50172). Put plainly: Inhibition of mouse 11beta-HSD1 using microsomal fraction and NADPH assessed as conversion of cortisone to cortisol by biochemical enzyme assay.
Chain of 11-beta-hydroxysteroid dehydrogenase 1 (Mus musculus, UniProt P50172) (P50172 whole entry): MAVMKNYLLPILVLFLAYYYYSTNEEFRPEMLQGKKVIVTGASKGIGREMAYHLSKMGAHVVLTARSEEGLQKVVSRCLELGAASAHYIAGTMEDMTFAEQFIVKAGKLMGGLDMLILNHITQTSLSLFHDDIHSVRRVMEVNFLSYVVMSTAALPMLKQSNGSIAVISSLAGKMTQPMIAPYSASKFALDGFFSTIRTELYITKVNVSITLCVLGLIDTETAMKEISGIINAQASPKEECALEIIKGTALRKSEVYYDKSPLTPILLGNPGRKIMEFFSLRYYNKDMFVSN

Calls of active or inactive are those of the source. No cut-off for these calls is given here.

In general, IC50 refers to the concentration that gives 50% inhibition. What is called inhibition in vivo is how much of the control response was suppressed. Broadly, the bioavailability is dose-corrected exposure relative to a reference, in per cent. For orientation: clearance means a measure of how efficiently the substance is removed, as volume per time. Low values mean a low capacity for elimination, high ones a high capacity for elimination.

Regarding `O=C(N[C@H]1C2CC3CC1C[C@](O)(C3)C2)c1cccc(N2CCN(c3ccc(Cl)cc3)CC2)n1`, the remaining at 0.5 h in data set [1] was 69%.

Turning to `N#Cc1ccc(C2CCN(c3cccc(C(=O)N[C@H]4C5CC6CC4C[C@](O)(C6)C5)n3)CC2)cc1`, in [1], the remaining at 0.5 h was 46%.

Consider `N#Cc1ccc(N2CCN(c3cccc(C(=O)N[C@H]4C5CC6CC4C[C@](O)(C6)C5)n3)CC2)cc1F`, for which, in data set [1], the remaining at 0.5 h was 79%.

Consider `COc1ccc(N2CCN(c3cccc(C(=O)N[C@H]4C5CC6CC4C[C@](O)(C6)C5)n3)[C@@H](C)C2)cc1`, for which, in [1], the remaining at 0.5 h came out at 77%.

As for `C[C@@H]1CN(c2ccc(C(N)=O)cc2)CCN1c1cccc(C(=O)N[C@H]2C3CC4CC2C[C@](O)(C4)C3)n1`, the remaining at 0.5 h in data set [1] worked out at 57%.

For the molecule `O=C(N[C@H]1C2CC3CC1C[C@](O)(C3)C2)c1cccc(N2CCN(c3ccc([N+](=O)[O-])cc3)CC2)n1`, in data set [1], the remaining at 0.5 h came to 74%.

On to `NC(=O)c1ccc(N2CCN(c3cccc(C(=O)N[C@H]4C5CC6CC4C[C@](O)(C6)C5)n3)CC2)cc1`, for which the remaining at 0.5 h in [1] was 65%.

`CNC(=O)c1ccc(N2CCN(c3cccc(C(=O)N[C@H]4C5CC6CC4C[C@](O)(C6)C5)n3)[C@H](C)C2)cc1`: the remaining at 0.5 h in data set [1] was 61%.

For the molecule `Cc1ccc(N2CCN(c3cccc(C(=O)N[C@H]4C5CC6CC4C[C@](O)(C6)C5)n3)CC2)cc1`, the remaining at 0.5 h in [1] was 74%.

As to `C[C@H]1CN(c2ccc(S(C)(=O)=O)cc2)CCN1c1cccc(C(=O)N[C@H]2C3CC4CC2C[C@](O)(C4)C3)n1`, the IC50 in data set [2] came to 4.2 nM; in data set [3], 6.8 nM. For the same molecule, the remaining at 0.5 h in [1] was found to be 88%.

`N#Cc1ccc(N2CCN(c3cccc(C(=O)N[C@H]4C5CC6CC4C[C@](O)(C6)C5)n3)CC2)cc1`: the inhibition in vivo at 30 mg/kg in data set [4] and in [5] was less than 10% throughout. In addition, the bioavailability in data set [6] amounted to 5%.

As to `O=C(N[C@H]1C2CC3CC1C[C@](O)(C3)C2)c1cccc(N2CCN(c3ccc(C(F)(F)F)cc3)CC2)n1`, the remaining at 0.5 h in data set [1] came out at 79%.

On to `C[C@@H]1CN(c2ccc(S(C)(=O)=O)cc2)CCN1c1cccc(C(=O)N[C@H]2C3CC4CC2C[C@](O)(C4)C3)n1`, for which the IC50 in data set [2] was 2.2 nM; in [3], 3.1 nM; in [16], greater than 10000 nM; in [17] it was 1.8 nM. Besides, the inhibition result in data set [7] and in data set [13] was “Active” in each case. The Activity result in data set [8], in [12] and in [14] was “Non-toxic” in each case. Also, the inhibition in vivo at 30 mg/kg stood at 95% in data set [9], 86% in data set [4], 85% in [15] and 77% in data set [5]. For the same molecule, in [10], the inhibition in vivo at 10 mg/kg stood at 41%. For the same molecule, the clearance in data set [11] is 14.2 mL/min/kg. The remaining at 0.5 h in [1] amounted to 97%. The molecule further displayed a bioavailability in [6] of 41%.

In the case of `CS(=O)(=O)c1ccc(N2CCN(c3cccc(C(=O)N[C@H]4C5CC6CC4C[C@](O)(C6)C5)n3)CC2)cc1`, the IC50 in [2] is 1.6 nM; in data set [3] it was 3.9 nM; in data set [16], greater than 10000 nM; in data set [17], 2.5 nM. Moreover, the inhibition in vivo at 30 mg/kg in data set [9] was 70%; in [4], 22%; in data set [15] it was 53%; in [5], 15%. The same molecule had a clearance in [11] of 29.7 mL/min/kg. Further, the remaining at 0.5 h in data set [1] worked out at 87%. Moreover, in data set [6], the bioavailability came to 17%.

For `N#Cc1ccc(C2CCN(c3cccc(C(=O)N[C@H]4C5CC6CC4C[C@](O)(C6)C5)n3)CC2)nc1`, in [1], the remaining at 0.5 h was found to be 63%.

Take `N#Cc1ccc(N2CCN(c3cccc(C(=O)N[C@H]4C5CC6CC4C[C@](O)(C6)C5)n3)CC2)c(Cl)c1`: in [1], the remaining at 0.5 h was 88%.

As for `N#Cc1ccc(N2CCC(c3cccc(C(=O)N[C@H]4C5CC6CC4C[C@](O)(C6)C5)n3)CC2)cc1`, in data set [1], the remaining at 0.5 h came to 58%.

Regarding `O=C(N[C@H]1C2CC3CC1C[C@](O)(C3)C2)c1cccc(N2CCN(c3ccc(F)cc3)CC2)n1`, the remaining at 0.5 h in [1] turned out to be 73%.

Take `C[C@@H]1CN(c2ccc(C(C)(C)O)cc2)CCN1c1cccc(C(=O)N[C@H]2C3CC4CC2C[C@](O)(C4)C3)n1`: the 50% inhibitory concentration (IC50) in [2] is 4.1 nM; in data set [3], 4.9 nM; in data set [16] it was greater than 10000 nM; in data set [17] it was 6.6 nM. The inhibition in vivo at 30 mg/kg in [9] amounted to 94%; in data set [4] it was 77%; in data set [15] it was 73%; in data set [5], 58%. For the same molecule, the clearance in data set [11] was 7.67 mL/min/kg. The remaining at 0.5 h in data set [1] was determined as 84%. In data set [6], this molecule showed a bioavailability of 32%.

As to `COc1ccc(N2CCN(c3cccc(C(=O)N[C@H]4C5CC6CC4C[C@](O)(C6)C5)n3)CC2)cc1`, the remaining at 0.5 h in data set [1] was 86%.

Consider `COc1ccc(N2CCN(c3cccc(C(=O)N[C@H]4C5CC6CC4C[C@](O)(C6)C5)n3)[C@H](C)C2)cc1`, for which the remaining at 0.5 h in data set [1] is 80%.

For `NC(=O)c1ccc(N2CCN(c3cccc(C(=O)N[C@H]4C5CC6CC4C[C@](O)(C6)C5)n3)CC2)c(Cl)c1`, the remaining at 0.5 h in [1] was determined as 32%.

For `N#Cc1ccc(N2CCC(c3cccc(C(=O)N[C@H]4C5CC6CC4C[C@](O)(C6)C5)n3)CC2)nc1`, the remaining at 0.5 h in [1] turned out to be 52%.

`Nc1ccc(N2CCN(c3cccc(C(=O)N[C@H]4C5CC6CC4C[C@](O)(C6)C5)n3)CC2)cc1`: in data set [1], the remaining at 0.5 h turned out to be 97%.

`C[C@@H]1CN(c2ccc(C#N)cc2)CCN1c1cccc(C(=O)N[C@H]2C3CC4CC2C[C@](O)(C4)C3)n1`: the remaining at 0.5 h in data set [1] stood at 84%.

As to `NC(=O)c1ccc(N2CCN(c3cccc(C(=O)N[C@H]4C5CC6CC4C[C@](O)(C6)C5)n3)CC2)cc1F`, the remaining at 0.5 h in data set [1] amounted to 28%.

Take `N#Cc1ccc(N2CCN(c3cccc(C(=O)N[C@H]4C5CC6CC4C[C@](O)(C6)C5)n3)CC2)nc1`: the remaining at 0.5 h in data set [1] was determined as 81%.

With `C[C@H]1CN(c2ccc(C#N)cc2)CCN1c1cccc(C(=O)N[C@H]2C3CC4CC2C[C@](O)(C4)C3)n1`, the remaining at 0.5 h in data set [1] was 82%.
